Measured values from US11629141B2, “Proteasome inhibitors and uses thereof” (CORNELL UNIVERSITY, priority 2015, dated 2023).
“Also recorded” adds a separate entry of the source. Where two headings read alike, the source gives them in different places.

Experiments:
[1] = target: T1, human immunoproteasome β5i (Homo sapiens, UniProt P28062); assay: IC50 against chymotryptic β5i activity of human immunoproteasome (96-well plate, Ac-ANW-AMC); format: biochemical
T1 construct: purchased Boston Biochem Inc
Protocol: A 96-well-plate assays were used to determine the IC50s against the chymotryptic β5 activities of the proteasomes. Both human constitutive proteasome and immunoproteasome were purchased from Boston Biochem Inc. 1 μL of 100× compound in DMSO at designated concentrations were spotted at the bottom of the wells. DMSO was used as a control. […] The hydrolysis of the substrate over time in each well was monitored at excitation 360 nm, emission 460 nm for 90 minutes. IC50s were estimated by fitting the velocities of hydrolysis against compound concentrations using PRISM. […] SDS (0.02%) was used as activator, and 0.01% BSA was used in the reaction buffer.

[2] = system: Pf20S β5; assay: Labeling of Pf20S active subunits by activity probe MV151 in Pf lysates; format: biochemical, P. falciparum; conditions: 1 hour with inhibitor, then MV151 (2 μM) 1 hour
Protocol: Pf lysates were incubated with inhibitors at indicated concentrations for 1 hour prior to incubation with MV151 (2 μM) for an additional hour. SDS pages were scanned on a Typhoon fluorescent scanner. […] BTZ was used as a positive control.

[3] = system: Plasmodium falciparum; assay: Growth of Plasmodium falciparum in red blood cells (SYBR Green, 72 hours); format: cell-based
Protocol: Continuous in vitro cultures of Plasmodium falciparum: were maintained in human red blood cells (RBC) diluted to a hematocrit of 5% in RPMI 1640 medium with HEPES and Hypoxanthine and completed with 0.5% Albumax II (Invitrogen), 0.25% sodium bicarbonate, and 0.1 mg/ml gentamicin. Parasites were incubated at 37° C. in a gas mixture of 5% oxygen, 5% carbon dioxide, and 90% nitrogen.
Parasite sensitivity to novel compounds were determined using a SYBR Green (Invitrogen S1046) drug assay protocol. P. falciparum of various clinic stains were cultured with compounds at concentrations in a series of dilution in a clear, sterile 96-well plate for 72 hours. Subsequently, 150 μl of the cultures were transferred to a black 96-well plate and placed in the freezer for red blood cell lysis. The plates were thawed and suspended in a Sybr Green Lysis buffer. GraphPad Prism was used to analyze the raw data collected […]. Drug concentrations were converted to logarithms, normalized, and then curve fitted by non-linear regression to obtain EC50 values.
Plasmodium falciparum: parasites were cultured in human red cells. Drug assays were run in 96 well plates at a total volume of 200 μl. Assays were set up at a starting parasitemia (percent of infected red cells) of 0.5%. Test compounds were plated at concentrations of 2778 nM to 0.4 nM. The test plates were grown under standard low oxygen conditions at 37° C. for 72 hours. At that time the plates were prepared for growth determination, first the plates were frozen and thawed to lyse the red blood cells, 150 μl of the lysed thawed culture was transferred to a black 96 well plate, and mixed in a lysis buffer with SYBR green DNA dye. The fluorescence of each well was recorded in a plate reader with excitation wavelength 490 nm and emission wavelength 530 nm and normalized relative to DMSO control. The EC50s were determined using Prism software.

[4] = target: T2, human constitutive proteasome β5c (Homo sapiens, UniProt P28074); assay: IC50 against chymotryptic β5c activity of human constitutive proteasome (96-well plate, Suc-LLVY-AMC); format: biochemical
T2 construct: purchased Boston Biochem Inc
Protocol: A 96-well-plate assays were used to determine the IC50s against the chymotryptic β5 activities of the proteasomes. Both human constitutive proteasome and immunoproteasome were purchased from Boston Biochem Inc. 1 μL of 100× compound in DMSO at designated concentrations were spotted at the bottom of the wells. DMSO was used as a control. Final concentrations of the inhibitors were from 100 μM to 0.098 μM. The hydrolysis of the substrate over time in each well was monitored at excitation 360 nm, emission 460 nm for 90 minutes. IC50s were estimated by fitting the velocities of hydrolysis against compound concentrations using PRISM. […] Suc-LLVY-AMC was used for βc at final concentration of 25 μM, and Ac-ANW-AMC for b5i at final concentration of 15 μM. SDS (0.02%) was used as activator, and 0.01% BSA was used in the reaction buffer.
The foregoing features of these AsnEDA encouraged a further round of SAR studies (Table 5) based on varying the carboxylic acid at the ethylenediamine, the N-cap at the Asn, and the side chain of the Asn, based on PKS21004. All compounds listed in the Table 5 were synthesized as described in Examples 6-77. All final compounds were confirmed by NMR and HRMS. IC50s of all compounds against β5i and β5c (Table 5), β1i, β2i, β1c and β2c were determined following a reported method (Lin et al., “N,C-Capped Dipeptides With Selectivity for Mycobacterial Proteasome Over Human Proteasomes: Role of S3 and S1Binding Pockets,” J Am Chem Soc. 135:9968-9971 (2013), which is hereby incorporated by reference in its entirety). […] The [1,1′-biphenyl]-3-carboxamide of PKS21004 was then modified with the following substituents: 4′-fluoro (PKS21026), 4′-cyano (PKS21028), 4-fluoro (PKS21196), 4,3′-difluoro (PKS21195) and 4,2′-difluoro (PKS21187).

[5] = system: β5 in Karpas 1106P cells; assay: Intracellular β5 inhibition in Karpas 1106P cells (suc-LLVY-luciferin); format: cell-based; conditions: 2 hours treatment
From the text: (§1) Data were average of three independent experiments.
(§2) IC50 values with both substrates were identical and indicated cell-penetrating ability. […] No β5i activity was detected in HepG2 cells using (Ac-ANW)2—R110 as substrate (FIG. 2A).

[6] = target: T3, β5i in Karpas 1106P cells (Homo sapiens, UniProt P28062); assay: Intracellular β5i inhibition in Karpas 1106P cells ((Ac-ANW)2-R110); format: cell-based; conditions: 2 hours treatment
T3 construct: endogenous in cells; host or cells: Karpas 1106P
From the text: as §1, §2

[7] = system: HepG2 liver cancer cells; assay: Cell viability assay, HepG2; format: cell-based; conditions: Homo sapiens, cytotoxicity, 72 hours
Protocol: (§3) Multiple myeloma cell lines MM.1 S (200,000 cells/mL) and RPMI 8226 (200,000 cells/mL), B lymphoma cell line Karpas1106P (800,000 cells/mL), and liver cancer cell line HepG2 (12,000 cells/mL) were used to determine the cytotoxicity of compounds. Cells were cultured at 37° C. in a humidified air/5% CO2 atmosphere in medium supplemented with 10% fetal bovine serum, except for the medium for Karpas-1106P cells which contained 20% fetal bovine serum, and 100 units/ml penicillin/100 […] streptomycin in RPMI 1640 medium. 12,000 cells/well. Cells plated in a 96-well plate were treated with compounds at the indicated concentrations for 72 hours at 37° C. in a tissue culture incubator with 5% CO2. Viable cells were counted using Cell-titer/glom assay kit. EC50s were calculated using PRISM (Graphpad).

[8] = system: MM1.S multiple myeloma cells; assay: Cell viability assay, MM.1S; format: cell-based; conditions: Homo sapiens, cytotoxicity, 72 hours
Protocol: as §3

[9] = target: T4, β5c in HepG2 cells (Homo sapiens, UniProt P28074); assay: Intracellular β5c inhibition in HepG2 cells (suc-LLVY-luciferin); format: cell-based; conditions: 2 hours treatment, read-out: IC50 HepG β5c
T4 construct: endogenous in cells; host or cells: HepG2
From the text: as §1, §2

[10] = system: RPMI 8226 multiple myeloma cells; assay: Cell viability assay, RPMI 8226; format: cell-based; conditions: Homo sapiens, cytotoxicity, 72 hours
Protocol: as §3

[11] = target: T5, hu i-20S β5i (Homo sapiens, UniProt P28062); assay: Kinetic analysis, substrate titration of hu i-20S steady state velocities; format: biochemical
T5 construct: purchased Boston Biochem Inc
Protocol: FIGS. 1A-1E are graphs showing inhibition modality of PKS21004 against human proteasomes. Washout of c-20S from the preincubated c-20S and […] to recover the β5c activity (FIG. 1A). Substrate titration of hu i-20S (FIG. 1B) and c-20S (FIG. 1D) steady state velocities in the presence of PKS21004 at the concentrations indicated next to each curve. Data as in (FIG. 1B) were plotted double reciprocal in (FIG. 1C), and (FIG. 1D) in (FIG. 1E).
A washout experiment was used to confirm the reversibility of this class of proteasome inhibitors, as expected from their non-covalent chemistry.

[12] = system: Karpas1106P B lymphoma cells; assay: Cell viability assay, Karpas1106P; format: cell-based; conditions: Homo sapiens, Karpas-1106P; cytotoxicity, 72 hours
Protocol: as §3

[13] = system: Pf Gametocytes; assay: Gametocyte killing assay (DilC1(5), flow cytometry); format: cell-based; conditions: Plasmodium falciparum; NF54 peg4-tdTomato, 72 hour incubation; read-out: EC50 against Pf Gametocytes
Protocol: Asexual replication of NF54 peg4-tdTomato parasites was eliminated by treating with 50 mM GlcNAc and 20 U/mL Heparin for 3 days. NF54 peg4-tdTomato parasites then were maintained using standard culture techniques. Gametocytes were induced synchronously according to Fivelman et al., “Improved Synchronous Production of Plasmodium Falciparum Gametocytes in Vitro,” Mol Biochemo Parasitol. 154(1):119-123 (2007), which is hereby incorporated by reference in its entirety. Asexual replication was eliminated by treating with 50 mM GlcNAc for 3 days. Gametocyte killing assays were setup on days 5 and 10 in triplicate 96-well format at 1% hematocrit and 2% gametocytemia. Compounds were setup in triplicate and serially diluted 3-fold. In addition, 6 solvent controls (DMSO) were distributed evenly across the plate. Following a 72 hour incubation, Stage III-IV (Day 5-7) and Stage IV-V (Day 10-12), (start the incubation in the afternoon on Day 5 and Day 10, take out plate for assay on Day8 and Day13 afternoon) cultures were stained with 16 nM Hoechst 33342 and 50 nM DilC1(5) for 30 min at 37 C. Using a Cytek DxP12 flow cytometer, gametocytemia was determined by gating for DNA+, hemozoin-high cells and gametocyte viability was inferred based on mitochondrial membrane potential-dependent accumulation of DilC1(5) for 2000-3000 gametocytes (Tanaka et al., “Potent Plasmodium Falciparum Gametocytocidal Activity of Diaminonaphthoquinones, Lead Antimalarial Chemotypes Identified in an Antimalarial Compound Screen,” Antimicrob. Agents Chemother. 2015, 59:1389 (2015), which is hereby incorporated by reference in its entirety). Mean DilC1(5) signal was normalized to solvent control and the overall minimum and used to calculate the EC50 (FIG. 3 and Table 4).

[14] = β5i, substrate Ac-ANW-AMC, read-out: IC50 Hu i-20S (Ac-ANW-AMC)
[15] = Erythrocyte, P.f. 3D7, growth in red blood cells, read-out: EC50 (nM) (P.f.)
[16] = β5c, substrate Suc-LLVY-AMC, read-out: IC50 Hu c-20S (Suc-LLVY-AMC)

SMILES: CC(C)(C)NC(=O)C[C@H](NC(=O)CCc1ccccc1)C(=O)NCCNC(=O)c1ccc(-c2ccccc2)cc1 [PKS21003]
- IC50 [1, 14]: > 100 µM
- labeling of Pf20S β5 by MV151 [2]: did not
- EC50 ([3]; D6, Erythrocyte, read-out: EC50s against P. falciparum strain D6): > 2770 nM
- EC50 ([3]; DD2, Erythrocyte, read-out: EC50s against P. falciparum strain Dd2): > 2770 nM
- EC50 [3, 15]: > 2770 nM
- EC50 ([3]; Erythrocyte, read-out: EC50s against P. falciparum strain IPC 3663): > 2770 nM
- EC50 ([3]; Erythrocyte, read-out: EC50s against P. falciparum strain IPC 4884): > 2770 nM
- EC50 ([3]; Erythrocyte, read-out: EC50s against P. falciparum strain IPC 5188): > 2770 nM
- EC50 ([3]; Erythrocyte, read-out: EC50s against P. falciparum strain Sb1-a6): > 2770 nM
- EC50 ([3]; Erythrocyte, read-out: EC50s against P. falciparum strain V1S): > 2770 nM
- EC50 ([3]; HB3, Erythrocyte, read-out: EC50s against P. falciparum strain HB3): > 2770 nM
- IC50 [4, 16]: > 100 µM

SMILES: CC(C)(C)NC(=O)C[C@H](NC(=O)CCc1ccccc1)C(=O)NCCNC(=O)c1cccc(-c2ccc(F)cc2)c1 [PKS21026]
- IC50 [1, 14]: 0.11 µM
- EC50 [3, 15]: 100 nM
- IC50 [4, 16]: 1.16 µM

SMILES: Cc1ccc(S(=O)(=O)N[C@@H](CC(=O)NC(C)(C)C)C(=O)NCCNC(=O)c2cc(-c3ccccc3F)ccc2F)cc1 [PKS21221]
- IC50 [5]: 0.118 µM
- IC50 [6]: 0.172 µM
- EC50 [7]: 3 µM
- IC50 ([1]; IC50 Hu i-20S (Ac-ANW-AMC), β5i, substrate Ac-ANW-AMC): 0.0041 µM
- IC50 ([1]; b406, read-out: IC50 against β5i): 0.0024 µM
- EC50 [8]: 0.095 µM
- IC50 [9]: 2 µM
- EC50 [3, 15]: 0.55 nM
- EC50 [10]: 0.075 µM
- α for i-20S (β5i) ([11]; fit to equation for noncompetitive inhibitors): 0.26
- modality of inhibition of β5i ([11]; with respect to substrate): noncompetitively inhibits; also recorded: noncompetitive
- IC50 [4]: 0.106 µM
- IC50 ([4]; b406, read-out: IC50 against β5c): 0.07 µM
- EC50 [12]: 0.84 µM

SMILES: Cc1cc(C(=O)N[C@@H](CC(=O)NC(C)(C)C)C(=O)NCCNC(=O)c2cc(-c3ccccc3)ccn2)no1 [PKS21224]
- IC50 [1, 14]: 0.746 µM
- EC50 [13]: 0.162 µM
- EC50 [3, 15]: 11 nM
- IC50 [4, 16]: 33.7 µM
